Measured values from patent US20230075365A1, “HERBICIDE COMBINATIONS COMPRISING GLUFOSINATE AND SELECTED PPO INHIBITORS” (BASF SE, priority 2020, published 2023).

Key:
Waterhemp = test: Greenhouse post emergence treatment, visual herbicidal activity against Waterhemp; format: in vivo, Amaranthus tuberculatus; conditions: scale from 0 to 100
Text: (§1) Synergism can be described as an interaction where the combined effect of two or more compounds is greater than the sum of the individual effects of each of the compounds. The presence of a synergistic effect in terms of percent control, between two mixing partners (X and Y) can be calculated using the Colby equation (Colby, S. R., 1967, Calculating Synergistic and Antagonistic Responses in Herbicide Combinations, Weeds, 15, 21-22):
(§2) When the observed combined control effect is greater than the expected (calculated) combined control effect (E), then the combined effect is synergistic.
Pots with 0.3 L of volume were filled with soil (SunGro Horticulture, Agawam, Mass. 01001) to grow one plant per pot in the greenhouse until the desired developmental stage. Environmental conditions inside the greenhouse were set up for 25° C., 75% relative humidity, and 12 h light day-1 with natural sunlight or 500 μmol m-1 s-1 PAR (photosynthetically active radiation) for cloudy days. Glufosinate applications were always performed in full sunlight to achieve maximum activity. The test period extended to 2 to 21 days after treatment. During this time, the plants were tended, and their response to the individual treatments was evaluated. The evaluation was carried out by visual control using a scale from 0 to 100. […]

Velvetleaf = test: Greenhouse post emergence treatment (Acifluorfen test method), herbicidal activity against Velvetleaf; format: in vivo, Abutilon theophrasti
Method: Pots with 0.8 L of volume were filled with soil (Sungro Horticulture, Agawam, Mass. 01001) to grow one plant per pot in the greenhouse until the desired developmental stage. Environmental conditions inside the greenhouse were set up for 30° C., 50% relative humidity, and 12 hr light day-1 with natural sunlight or 760 umol m-1 s-1 PAR (Photosynthetically active radiation) for cloudy days. Glufosinate applications were always performed in full sunlight to achieve maximum activity Pots with test plants grown to 3.5 to 4.5 inch (8.9 to 11.4 cm) tall were treated with the herbicidal compositions, which were obtained by diluting commercially available formulations with deionized water to desired concentration, and then sprayed using finely distributing nozzles on to the plants. The test period extended over 21 days after treatment (DAT). During this time, the plants were tended and their response to the individual treatments was evaluated.
The evaluation was done by calculating using the following Colby equation, wherein X was the effect in percent using acifluorfen at an application rate a, Y was the effect in percent using glufosinate at application rate b, and E was the expected effect (in %) of acifluorfen plus glufosinate at application rates a+b.
The value E corresponds to the effect (plant damage or injury) which is to be expected if the activity of the individual compounds is just additive. If the observed effect is higher than the value E calculated according to Colby, a synergistic effect is present.
The evaluation for the damage caused by the chemical compositions was carried out using a scale from 0 to 100%, compared to the untreated control plants. Here, 0 means no damage and 100 means complete destruction of the plants.
Adjuvants of ammonium sulfate (as AMS Liquid) and non-ionic surfactant (NIS, here as Induce) at rates of 1680 g/ha and 0.25% (v/v), respectively, were added in all treatments with Acifluorfen.

Kochia = test: Greenhouse post emergence treatment, visual herbicidal activity against Kochia; format: in vivo, Bassia scoparia; conditions: scale from 0 to 100
Text: as §1, §2
Pots with 0.3 L of volume were filled with soil (SunGro Horticulture, Agawam, Mass. 01001) to grow one plant per pot in the greenhouse until the desired developmental stage. Environmental conditions inside the greenhouse were set up for 25° C., 75% relative humidity, and 12 h light day-1 with natural sunlight or 500 μmol m-1 s-1 PAR (photosynthetically active radiation) for cloudy days. Glufosinate applications were always performed in full sunlight to achieve maximum activity. The test period extended to 2 to 21 days after treatment. During this time, the plants were tended, and their response to the individual treatments was evaluated. The evaluation was carried out by visual control using a scale from 0 to 100. 100 means no emergence of the plants or complete destruction of at least the above-ground parts, and 0 means no damage, or normal course of growth. Data shown are the mean of three replications.

Compound: CP(=O)(O)CCC(N)C(=O)O (racemic) [Glufosinate, (2RS)-2-amino-4-[hydroxy(methyl)phosphinoyl]butyric acid]
- Herbicidal activity against Waterhemp (1 DAT), Found (Waterhemp; Glufosinate 280 g ai/ha solo): 18
- Herbicidal activity against Velvetleaf, solo application, % activity (Velvetleaf; Glufosinate 123 g ai/ha solo, 7 DAT): 49%
- Herbicidal activity against Velvetleaf, solo application, % activity (Velvetleaf; Glufosinate 123 g ai/ha solo, 14 DAT): 56%
- Herbicidal activity against Velvetleaf, solo application, % activity (Velvetleaf; Glufosinate 123 g ai/ha solo, 21 DAT): 45%
- Herbicidal activity against Kochia (21 DAT), Found (Kochia; Glufosinate 420 g ai/ha solo): 25

Compound: O=C(O)c1cc(Oc2ccc(C(F)(F)F)cc2Cl)ccc1[N+](=O)[O-] [Acifluorfen]
- Herbicidal activity against Velvetleaf, solo application, % activity (Velvetleaf; Acifluorfen 7.176 g ai/ha solo, 7 DAT): 38%
- Herbicidal activity against Velvetleaf, solo application, % activity (Velvetleaf; Acifluorfen 7.176 g ai/ha solo, 14 DAT): 40%
- Herbicidal activity against Velvetleaf, solo application, % activity (Velvetleaf; Acifluorfen 7.176 g ai/ha solo, 21 DAT): 33%

Compound: CCOC(=O)C(C)OC(=O)c1cc(Oc2ccc(C(F)(F)F)cc2Cl)ccc1[N+](=O)[O-] (centres unmarked) [Lactofen]
- Herbicidal activity against Waterhemp (1 DAT), Found (Waterhemp; Lactofen 5 g ai/ha solo): 3
- Herbicidal activity against Kochia (21 DAT), Found (Kochia; Lactofen 5.2 g ai/ha solo): 25

Compound: CS(=O)(=O)NC(=O)c1cc(Oc2ccc(C(F)(F)F)cc2Cl)ccc1[N+](=O)[O-] [Fomesafen]
- Herbicidal activity against Kochia (21 DAT), Found (Kochia; Fomesafen 7.1 g ai/ha solo): 25
